Measured values from PMC3681751, “Identification of a Novel Antimicrobial Peptide from Human Hepatitis B Virus Core Protein Arginine-Rich Domain (ARD)” (PLoS Pathogens, 2013).
Converted amounts (≈) assume the structure as drawn. Where two headings read alike, the source gives them in different places. Positions of bridges follow the written chain, without caps; N, C: chain ends. Non-standard residues stand in square brackets, D forms with d. Residues, ends and D or L forms follow the SMILES beside them. No end group written: not given here. *: point of attachment. pS = N[C@@H](COP(=O)(O)O)C(=O)O; X1 = CC[C@H](C)CCCCC(=O)*; Dab = NCC[C@H](N)C(=O)O

Legend:
HepG2 cells = experiment: Peptide uptake into mammalian cells; format: cell-based, human; settings: peptide added to the medium of HepG2 cells
Protocol: To set up CFSE cell proliferation assay, 293 cells (human kidney origin) and Vero cells (monkey kidney origin) were resuspended in PBS to a final concentration of 10^6 cells/ml, before incubation with 10 µM CFSE dye (CellTrace CFSE cell proliferation kit, Invitrogen) at 37°C for 10 min. To quench the staining, ice-old culture media were then added and incubated on ice for 5 min. Labeled cells were then pelleted and washed three times by fresh medium containing 10% FBS before seeding into six well plates at a density of 3.3×10^5cells/well. After 20 h, the medium was removed and incubated with fresh medium containing 5, 25 and 100 µM HBc 147-183 for one hour (FITC-labeled ARD peptide had been largely internalized in 10 minutes after the addition of ARD peptides to the medium of HepG2 cells). Forty-eight hours later, cells were harvested and analyzed by flow cytometry (FACSCanto, BD Bioscience).

P. aeruginosa NHRI-01 = format: cell-based, Pseudomonas aeruginosa; settings: Colistin resistant strain; colistin susceptibility by broth-dilution (CLSI)
Description: (§1) Clinical isolates of Pseudomonas aeruginosa (NHRI-01, NHRI-02 and NHRI-04) were obtained through the program of Taiwan Surveillance of Antimicrobial Resistance (TSAR), National Health Research Institutes (NHRI), Taiwan. Acinetobacter baumannii (ATCC 17989, ATCC 17978 CR, ATCC19606, ATCC 19606 CR, TCGH 45530 and TCGH 46709) were obtained from Tzu-Chi Buddhist General Hospital (TCGH) in Taiwan, and clinical isolates (TCGH 45530 and TCGH 46709) were identified using the Vitek system (Biomerieux Vitek, Inc., Hazelwood, MO, USA). A. baumannii is defined as multidrug-resistant, when the organism is resistant to piperacillin, piperacillin-tazobactam, ampicillin/sulbactam, imipenem, ceftazidime, gentamicin, amikacin, tetracycline, chloramphenicol, ciprofloxacin, and cotrimoxazole. Susceptibility to colistin was determined using the broth-dilution method, in accordance with the guidelines of the Clinical and Laboratory Standards Institute (CLSI).
(§2) All peptides were purchased from Yao-Hong Biotechnology Inc. (Taipei, Taiwan). Vendors provided data of peptide characterizations, including HPLC and Mass (data not shown). Antimicrobial activity was determined as described with some modifications as detailed below. Bacteria were grown overnight in Mueller–Hinton broth (Difco) at 37°C, and during the mid-logarithmic phase, bacteria were diluted to 10^6 CFU (colony formation unit)/ml in phosphate buffer (10 mM sodium phosphate and 50 mM sodium chloride, pH 7.2). Peptides were serially diluted in the same buffer. Fifty microliter (µl) of bacteria was mixed with fifty µl of peptides at varying concentrations followed by incubation at 37°C for 3 hours without shaking. At the end of incubation, bacteria were placed on Mueller-Hinton broth agar plates, and allowed growth at 37°C overnight for measurement of minimal bactericidal concentration (MBC). […] All peptides were tested in triplicate.

P. aeruginosa NHRI-02 = format: cell-based, Pseudomonas aeruginosa; settings: Colistin sensitive strain; colistin susceptibility by broth-dilution (CLSI)
Description: as §1, §2

P. aeruginosa NHRI-04 = format: cell-based, Pseudomonas aeruginosa; settings: Colistin sensitive strain; colistin susceptibility by broth-dilution (CLSI)
Description: as §1, §2

[1] = system: A. baumannii ATCC17978 CR; format: cell-based, Acinetobacter baumannii; settings: Induced Colistin resistant strain; colistin susceptibility by broth-dilution (CLSI)
Description: as §1, §2

A. baumannii ATCC17978 = format: cell-based, Acinetobacter baumannii; settings: Reference strain; colistin susceptibility by broth-dilution (CLSI)
Description: as §1, §2

[2] = system: A. baumannii ATCC19606 CR; format: cell-based, Acinetobacter baumannii; settings: Induced Colistin resistant strain; colistin susceptibility by broth-dilution (CLSI)
Description: as §1, §2

A. baumannii ATCC19606 = format: cell-based, Acinetobacter baumannii; settings: Reference strain; colistin susceptibility by broth-dilution (CLSI)
Description: as §1, §2

A. baumannii TCGH45530 = format: cell-based, Acinetobacter baumannii; settings: Clinical isolate, multidrug resistance; colistin susceptibility by broth-dilution (CLSI)
Description: as §1, §2

A. baumannii TCGH46709 = format: cell-based, Acinetobacter baumannii; settings: Clinical isolate, multidrug resistance; colistin susceptibility by broth-dilution (CLSI)
Description: as §1, §2

[3] = system: P. aeruginosa (ATCC 27853); format: cell-based, Pseudomonas aeruginosa
Protocol: (§3) The antimicrobial activities of HBc ARD peptides were tested using a number of bacterial strains from ATCC, including Pseudomonas aeruginosa Migula strain (ATCC 27853, ampicillin-resistant), Pseudomonas aeruginosa Migula strain (ATCC 9027, ampicillin-resistant), Klebsiella pneumoniae strain (ATCC 17593), Escherichia coli strain (ATCC 25922), Staphylococcus aureus subsp. strain (ATCC 25923, methicillin-resistant), Staphylococcus aureus subsp. strain (ATCC 29213, methicillin-resistant), Staphylococcus aureus subsp. strain (ATCC 19636, methicillinresistant), and Candida albicans strain (ATCC 10231).
as §2

[4] = system: P. aeruginosa (ATCC 9027); format: cell-based, Pseudomonas aeruginosa
Protocol: as §3, §2

[5] = system: K. pneumonia (ATCC 13884); format: cell-based, Klebsiella pneumoniae
E. coli (ATCC 25922) = format: cell-based, Escherichia coli
Protocol: as §3, §2

S. aureus (ATCC 19636) = format: cell-based, Staphylococcus aureus
Protocol: as §3, §2

S. aureus (ATCC 25923) = format: cell-based, Staphylococcus aureus
Protocol: as §3, §2

S. aureus (ATCC 29213) = format: cell-based, Staphylococcus aureus
Protocol: as §3, §2

[6] = system: tested bacteria and fungi; format: cell-based; settings: summary over the tested bacteria of Table 1
Protocol: as §3, §2

[7] = ampicillin-resistant strain, 3 h at 37°C in phosphate buffer pH 7.2, triplicate
[8] = 3 h at 37°C in phosphate buffer pH 7.2, triplicate
[9] = methicillin-resistant strain, 3 h at 37°C in phosphate buffer pH 7.2, triplicate
[10] = ampicillin-resistant strain, 3 h at 37°C in 10 mM sodium phosphate, 50 mM NaCl, pH 7.2, 10^6 CFU/ml, triplicate, ND = not detectable
[11] = 3 h at 37°C in 10 mM sodium phosphate, 50 mM NaCl, pH 7.2, 10^6 CFU/ml, triplicate, ND = not detectable
[12] = methicillin-resistant strain, 3 h at 37°C in 10 mM sodium phosphate, 50 mM NaCl, pH 7.2, 10^6 CFU/ml, triplicate, ND = not detectable

Molecule | MBC (P. aeruginosa NHRI-01) [µg/mL] | MBC (P. aeruginosa NHRI-02) [µg/mL] | MBC (P. aeruginosa NHRI-04) [µg/mL] | MBC [1] [µg/mL] | MBC (A. baumannii ATCC17978) [µg/mL] | MBC [2] [µg/mL] | MBC (A. baumannii ATCC19606) [µg/mL] | MBC (A. baumannii TCGH45530) [µg/mL] | MBC (A. baumannii TCGH46709) [µg/mL] | Antimicrobial activity, MBC [3, 7] [µg/mL] | Antimicrobial activity, MBC [4, 7] [µg/mL] | Antimicrobial activity, MBC [5, 8] [µg/mL] | Antimicrobial activity, MBC (E. coli (ATCC 25922); [8]) [µg/mL] | Antimicrobial activity, MBC (S. aureus (ATCC 19636); [9]) [µg/mL] | Antimicrobial activity, MBC (S. aureus (ATCC 25923); [9]) [µg/mL] | Antimicrobial activity, MBC (S. aureus (ATCC 29213); [9]) [µg/mL] | MBC for bacteria [6] [µM] | Antimicrobial activity, MBC [3, 10] [µM] | Antimicrobial activity, MBC [4, 10] [µM] | Antimicrobial activity, MBC [5, 11] [µM] | further results
FITC-labeled HBc147-183: FITC-labeled HBc147-183 used for localization by confocal microscopy (TVVRRRGRSPRRRTPSPRRRRSQSPRRRRSQSRESQC; also: FITC label, place not given here; UniProt P03147 147-183, looked up, fragment) | – | – | – | – | – | – | – | – | – | – | – | – | – | – | – | – | – | – | – | – | Time after which peptide was largely internalized (HepG2 cells): 10 min
CC[C@H](C)CCCCC(=O)N[C@@H](CCN)C(=O)N[C@H](C(=O)N[C@@H](CCN)C(=O)N[C@H]1CCNC(=O)[C@H]([C@@H](C)O)NC(=O)[C@H](CCN)NC(=O)[C@H](CCN)NC(=O)[C@H](CC(C)C)NC(=O)[C@@H](Cc2ccccc2)NC(=O)[C@H](CCN)NC1=O)[C@@H](C)O [Polymyxin B] (X1-[Dab]T[Dab][Dab][Dab][dF]L[Dab][Dab]T; lactam 4-C (inferred); N-terminus assumed) | 4 (≈ 3.32 µM) | 2 (≈ 1.66 µM) | 2 (≈ 1.66 µM) | 8 (≈ 6.65 µM) | 4 (≈ 3.32 µM) | >8 | 2 (≈ 1.66 µM) | 8 (≈ 6.65 µM) | >8 | – | – | – | – | – | – | – | – | – | – | – | –
CC(C)[C@H](NC(=O)[C@@H](NC(=O)[C@@H](N)[C@@H](C)O)C(C)C)C(=O)N[C@@H](CCCNC(=N)N)C(=O)N[C@@H](CCCNC(=N)N)C(=O)N[C@@H](CCCNC(=N)N)C(=O)NCC(=O)N[C@@H](CCCNC(=N)N)C(=O)N[C@@H](COP(=O)(O)O)C(=O)N1CCC[C@H]1C(=O)N[C@@H](CCCNC(=N)N)C(=O)N[C@@H](CCCNC(=N)N)C(=O)N[C@@H](CCCNC(=N)N)C(=O)N[C@H](C(=O)N1CCC[C@H]1C(=O)N[C@@H](COP(=O)(O)O)C(=O)N1CCC[C@H]1C(=O)N[C@@H](CCCNC(=N)N)C(=O)N[C@@H](CCCNC(=N)N)C(=O)N[C@@H](CCCNC(=N)N)C(=O)N[C@@H](CCCNC(=N)N)C(=O)N[C@@H](CO)C(=O)N[C@@H](CCC(N)=O)C(=O)N[C@@H](COP(=O)(O)O)C(=O)N1CCC[C@H]1C(=O)N[C@@H](CCCNC(=N)N)C(=O)N[C@@H](CCCNC(=N)N)C(=O)N[C@@H](CCCNC(=N)N)C(=O)N[C@@H](CCCNC(=N)N)C(=O)N[C@@H](CO)C(=O)N[C@@H](CCC(N)=O)C(=O)N[C@@H](CO)C(=O)N[C@@H](CCCNC(=N)N)C(=O)N[C@@H](CCC(=O)O)C(=O)N[C@@H](CO)C(=O)N[C@@H](CCC(N)=O)C(=O)N[C@@H](CS)C(=O)O)[C@@H](C)O [HBc155p162p170p] | – | – | – | – | – | – | – | – | – | > 154.5 | > 154.5 | > 154.5 | > 154.5 | > 154.5 | > 154.5 | > 154.5 | > 32 | – | – | – | Antimicrobial activity, MBC ([3]; ATCC 27853, 3 h, pH 7.2): > 32 µM; Antimicrobial activity, MBC ([4]; ATCC 9027, 3 h, pH 7.2): > 32 µM; Antimicrobial activity, MBC ([5]; ATCC 13884, 3 h, pH 7.2): > 32 µM; Antimicrobial activity, MBC (E. coli (ATCC 25922); ATCC 25922, 3 h, pH 7.2): > 32 µM; Antimicrobial activity, MBC (S. aureus (ATCC 19636); ATCC 19636, 3 h, pH 7.2): > 32 µM; Antimicrobial activity, MBC (S. aureus (ATCC 25923); ATCC 25923, 3 h, pH 7.2): > 32 µM; Antimicrobial activity, MBC (S. aureus (ATCC 29213); ATCC 29213, 3 h, pH 7.2): > 32 µM
HBc176p: HBc147-183 phosphorylated on S176 (TVVRRRGRSPRRRTPSPRRRRSQSPRRRR[pS]QSRESQC; UniProt P03147 147-183, looked up, fragment) | – | – | – | – | – | – | – | – | – | 37.4 | 37.4 | 18.68 | 37.4 | 37.4 | 37.4 | 37.4 | 8 | 8 | 8 | 4 | Antimicrobial activity, MBC (E. coli (ATCC 25922); [11]): 8 µM; Antimicrobial activity, MBC (S. aureus (ATCC 19636); [12]): 8 µM; Antimicrobial activity, MBC (S. aureus (ATCC 25923); [12]): 8 µM; Antimicrobial activity, MBC (S. aureus (ATCC 29213); [12]): 8 µM
CC[C@H](C)CCCCC(=O)N[C@@H](CCN)C(=O)N[C@H](C(=O)N[C@@H](CCN)C(=O)N[C@H]1CCNC(=O)[C@H]([C@@H](C)O)NC(=O)[C@H](CCN)NC(=O)[C@H](CCN)NC(=O)[C@H](CC(C)C)NC(=O)[C@@H](CC(C)C)NC(=O)[C@H](CCN)NC1=O)[C@@H](C)O [Colistin] (X1-[Dab]T[Dab][Dab][Dab][dL]L[Dab][Dab]T; lactam 4-C (inferred); N-terminus assumed) | >8 | 4 (≈ 3.42 µM) | 4 (≈ 3.42 µM) | >8 | 4 (≈ 3.42 µM) | 8 (≈ 6.84 µM) | 2 (≈ 1.71 µM) | >8 | >8 | – | – | – | – | – | – | – | – | – | – | – | –
HBc170p: HBc147-183 phosphorylated on S170 (TVVRRRGRSPRRRTPSPRRRRSQ[pS]PRRRRSQSRESQC; UniProt P03147 147-183, looked up, fragment) | – | – | – | – | – | – | – | – | – | ~149.5 | ~149.5 | 37.4 | ~149.5 | ~149.5 | ~149.5 | ~149.5 | 32 | ~32 | ~32 | 8 | Antimicrobial activity, MBC (E. coli (ATCC 25922); [11]): ~32 µM; Antimicrobial activity, MBC (S. aureus (ATCC 19636); [12]): ~32 µM; Antimicrobial activity, MBC (S. aureus (ATCC 25923); [12]): ~32 µM; Antimicrobial activity, MBC (S. aureus (ATCC 29213); [12]): ~32 µM
